Measured values taken from PubChem BioAssay (NCI).
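Dose response: 5 concentrations. Exposure: 48 h. Format: 96-well plates. Endpoint: linear interpolation; highest concentration if not reached. GI50 is the concentration that inhibits growth by half. Definition used: TGI = concentration required for complete inhibition of growth.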

Experiments:
Assay in all cases: NCI anticancer screen, dose series, 48 h
SK-MEL-2 melanoma = test system: SK-MEL-2 melanoma
HCT-15 colon = test system: HCT-15 colon
U251 CNS = test system: U251 CNS
NCI-H226 lung = test system: NCI-H226 lung
A549 NSCLC = test system: A549 NSCLC
SK-OV-3 ovarian = test system: SK-OV-3 ovarian
ACHN renal = test system: ACHN renal
SNB-19 CNS = test system: SNB-19 CNS
MALME-3M melanoma = test system: MALME-3M melanoma
HS 578T breast = test system: HS 578T breast

SMILES	TGI (SK-MEL-2 melanoma) [µM]	TGI (HCT-15 colon) [µM]	TGI (U251 CNS) [µM]	TGI (NCI-H226 lung) [µM]	TGI (A549 NSCLC) [µM]	TGI (SK-OV-3 ovarian) [µM]	TGI (ACHN renal) [µM]	TGI (SNB-19 CNS) [µM]	TGI (MALME-3M melanoma) [µM]	TGI (HS 578T breast) [µM]	GI50 (SK-MEL-2 melanoma) [µM]	GI50 (U251 CNS) [nM]	GI50 (NCI-H226 lung) [µM]	GI50 (A549 NSCLC) [µM]	GI50 (SK-OV-3 ovarian) [µM]	GI50 (ACHN renal) [nM]	GI50 (SNB-19 CNS) [µM]	GI50 (MALME-3M melanoma) [nM]	GI50 (HS 578T breast) [µM]	GI50 (HCT-15 colon) [µM]
Cc1ccc(S(=O)(=O)Nc2cc(=O)[nH]c3c2CCC3)cc1	> 100	> 100	> 100	> 100	> 100	> 100	> 100	> 100	> 100	> 100	–	–	–	–	–	–	–	–	–	–
CCOC(=O)/C=C/C1=C(Br)[C@@]2(C)CC[C@@H]3c4ccc(O)cc4CC[C@H]3[C@@H]2C1	28.1	24.4	30.3	30.2	30.5	28.7	29.1	30.2	24.3	28.9	–	–	–	–	–	–	–	–	–	–
CS(=O)(=O)Nc1cccc(-c2ccc3ncnc(Nc4cncc(Cl)c4)c3c2)c1	7.35	–	4.18	8.23	> 100	4.99	> 100	> 100	8.38	6.41	2.64	1640	2.21	2.5	1.34	1110	3.84	2340	1.35	–
C#C[C@]1(O)[C@@H](CO)O[C@@H](n2ccc(=O)[nH]c2=O)[C@@H]1O	3.32	–	> 100	2.66	> 100	> 100	0.602	> 62.1	7.62	> 23.5	–	–	–	–	–	–	–	–	–	–
CN(CCN1C(=O)c2cccc3cccc(c23)C1=O)CCN1C(=O)c2cccc3cccc(c23)C1=O	> 100	> 100	24.7	75.2	> 100	16.6	20.7	16.8	> 100	> 100	–	–	–	–	–	–	–	–	–	–
NC(N)=N/N=C/c1c(-c2cccs2)nc2n1CCS2	> 100	60.1	30.1	31.8	> 100	> 100	40.9	57.8	–	77.4	43.3	16600	15.9	> 100	> 100	20800	22	–	18.8	20.6
Oc1ccc(Cl)cc1C1=Nn2c(COc3ccc4c(c3)CCCC4)nnc2SC1	31.1	36.7	35.3	–	92.9	42.4	49.7	50.5	> 100	30	–	–	–	–	–	–	–	–	–	–
c1ccc(C[N+]23C(CC[C@H]2c2ccccc2)CC[C@H]3c2ccccc2)cc1 (stereo partly specified)	> 100	–	> 100	87.8	> 100	> 100	> 100	> 100	> 100	> 100	–	–	–	–	–	–	–	–	–	–
OC1CCSc2ccccc21 (stereo unspecified)	> 100	> 100	> 100	> 100	> 100	> 100	> 100	> 100	> 100	–	–	–	–	–	–	–	–	–	–	–
Nc1csc(-c2scc3c2OCCO3)c1N	40	35.1	29.3	42.9	> 100	–	> 100	> 100	36	> 100	–	–	–	–	–	–	–	–	–	–
Cc1cc(=O)[nH]c(S(=O)(=O)NC(=O)Nc2cccc(Cl)c2)n1	> 100	> 100	> 100	> 100	> 100	> 100	> 100	> 100	> 100	> 100	–	–	–	–	–	–	–	–	–	–
CC1(C)CC(C(=O)OCCCCCCCCCCC[P+](c2ccccc2)(c2ccccc2)c2ccccc2)C(C)(C)N1O (stereo unspecified)	–	2.23	1.11	–	–	0.711	1.48	1.24	–	1.84	–	59.6	–	–	0.248	422	0.263	–	0.354	0.87
CCOC(=O)c1cccc(N=Nc2ncc(/C=C/C(=O)OC)[nH]2)c1	> 100	> 100	> 100	> 100	> 100	> 100	72	> 100	70.3	> 100	–	–	–	–	–	–	–	–	–	–
CC(C)(C)COS(=O)OCC(C)(C)C	> 100	> 100	> 100	> 100	> 100	> 100	> 100	> 100	> 100	> 100	–	–	–	–	–	–	–	–	–	–
Fc1c(F)c(F)c(CSc2nc3ccccc3[nH]2)c(F)c1F	> 100	> 100	> 100	> 100	> 100	> 100	> 100	> 100	> 100	> 100	–	–	–	–	–	–	–	–	–	–
CC12OC(C(=O)C13CCC3)C1C(=O)c3c(O)ccc(O)c3C(=O)C12 (stereo unspecified)	> 100	3.4	> 22.8	> 100	22.3	54.3	2.01	> 50.5	3.88	17.6	14.1	2470	> 100	5.79	18.6	715	14.7	1800	4.38	0.952

SMILES	TGI (SK-MEL-2 melanoma) [µM]	TGI (HCT-15 colon) [µM]	TGI (U251 CNS) [µM]	TGI (NCI-H226 lung) [µM]	TGI (A549 NSCLC) [µM]	TGI (SK-OV-3 ovarian) [µM]	TGI (ACHN renal) [µM]	TGI (SNB-19 CNS) [µM]	TGI (MALME-3M melanoma) [µM]	TGI (HS 578T breast) [µM]	GI50 (SK-MEL-2 melanoma) [µM]	GI50 (U251 CNS) [nM]	GI50 (NCI-H226 lung) [µM]	GI50 (A549 NSCLC) [µM]	GI50 (SK-OV-3 ovarian) [µM]	GI50 (ACHN renal) [nM]	GI50 (SNB-19 CNS) [µM]	GI50 (MALME-3M melanoma) [nM]	GI50 (HS 578T breast) [µM]	GI50 (HCT-15 colon) [µM]
O=C(NN1CCCCC1)c1cc2cc(CCl)ccc2oc1=O	28.9	39.9	31.6	45.3	48.5	42.6	> 100	65.2	24.8	36.4	–	–	–	–	–	–	–	–	–	–
CN(C)c1ccc(/C=C2\C[C@H]3[C@@H]4CC=C5C[C@@H](O)CC[C@]5(C)[C@H]4CC[C@]3(C)[C@H]2O)cc1	42.9	39.7	22.6	34.7	38.6	88.1	30.7	37.1	38.4	50.8	–	–	–	–	–	–	–	–	–	–
Cc1ccc([N+](=O)[O-])cc1S(=O)(=O)Nc1ccc(C2=NN(C(=O)c3ccccc3)C(c3ccccc3O)C2)cc1 (stereo unspecified)	46.4	33.5	80.1	58.6	74.4	84.5	47.8	> 100	31.5	> 100	–	–	–	–	–	–	–	–	–	–
C/C=C/C(O)P(=O)(OC)OC (stereo unspecified)	1	1.06	0.872	1.39	1.07	2.51	1.25	1.53	1.17	0.915	–	–	–	–	–	–	–	–	–	–
Clc1cccc(/C=c2\nc(-c3ccccc3)n3c2nc2ccccc23)c1	> 100	> 100	> 100	> 100	> 100	> 100	–	> 100	> 100	> 100	–	–	–	–	–	–	–	–	–	–
COc1cc2cc[n+](C)c(Cc3ccc(Oc4cc(Cc5c6cc(OC)c(OC)cc6cc[n+]5C)ccc4OC)cc3)c2cc1OC	> 100	> 100	> 100	> 100	> 100	> 100	> 100	> 100	> 100	> 100	–	–	–	–	–	–	–	–	–	–
Nc1ccc(Cc2ccc(N)c(C(=O)O)c2)cc1C(=O)O	> 100	> 100	> 100	> 100	> 100	> 100	> 100	> 100	> 100	> 100	–	–	–	–	–	–	–	–	–	–
C=C(CN(C)C)C(=O)c1ccccc1Cl	36.5	38.8	98.4	> 100	> 100	> 100	32.5	> 100	31.7	–	–	–	–	–	–	–	–	–	–	–
O=S(C(c1ccccc1)=P(c1ccccc1)(c1ccccc1)c1ccccc1)c1ccc(Cl)cc1 (stereo unspecified)	45.9	> 100	> 100	> 100	–	50.6	60	–	–	55.3	–	–	–	–	–	–	–	–	–	–
COc1ccc(-n2nc(C(=O)c3ccccc3)c3nn4c(=O)cc(-c5ccccc5)nc4nc32)cc1	> 100	> 100	> 100	> 100	> 100	> 100	> 100	> 100	> 100	> 100	45.8	39200	98.1	39.2	74.2	45900	69.1	34500	69.9	43.4
CN(CCCNC(=O)c1nn(-c2ccccc2)c2c1Cc1ccccc1-2)CCCNC(=O)c1nn(-c2ccccc2)c2c1Cc1ccccc1-2	2.69	3.1	2.82	–	3.58	3.23	3.12	3.07	2.91	–	–	–	–	–	–	–	–	–	–	–
CN(CCc1ccccn1)c1ccc2c(c1)Cc1ccccc1-2	–	> 100	22.6	40.5	> 100	68.6	> 100	58	93.7	9.92	–	–	–	–	–	–	–	–	–	–
O=C1CNc2cc(N3CCCCC3)ccc2N1	> 100	> 100	> 100	37.3	> 100	> 100	> 100	> 100	> 100	> 100	–	–	–	–	–	–	–	–	–	–
Cc1c2ccccc2cc2cccc[n+]12	> 100	> 100	–	–	> 100	–	> 100	> 100	27.9	73	–	–	–	–	–	–	–	–	–	–
CC(CCCCNC(=O)OC(C)(C)C)NC(=O)NC(C)CCCCNC(=O)OC(C)(C)C (stereo unspecified)	–	> 100	> 100	> 100	> 100	> 100	> 100	> 100	> 100	> 100	–	–	–	–	–	–	–	–	–	–
CS(=O)(=O)Nc1ccc(NCc2cnc3ccc4[nH]cccc4c23)cc1	32	> 100	68.9	> 100	> 100	> 100	> 100	> 100	46.6	57	–	–	–	–	–	–	–	–	–	–
